Target: T1, hPIRT (human PIRT, phosphoinositide interacting regulator of TRPs) (Homo sapiens, UniProt P0C851)
T1 construct: full-length, recombinant from E. coli, reconstituted in DPC micelles; two TM helices, C-terminal amphipathic helix Asp125-Arg137; maleimide dye labelled for MST
Assay: microscale thermophoresis
Format: binding
Settings: DPC micelles (0.1% DPC), 50 mM HEPES pH 7.5, 25 °C; fluorophore-labelled hPIRT 400 nM; no TRPM8-S1S4; diC8 chain stated for the NMR titration, MST lipid called PIP2 only

T1 sequence (P0C851 whole entry): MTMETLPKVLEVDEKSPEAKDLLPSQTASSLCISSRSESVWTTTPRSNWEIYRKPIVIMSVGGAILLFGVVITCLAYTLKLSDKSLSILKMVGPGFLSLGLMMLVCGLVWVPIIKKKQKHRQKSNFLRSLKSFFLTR

Kd: 0.18 ± 0.06 mole%
SMILES: CCCCCCCC(=O)OC[C@H](COP(=O)(O)O[C@@H]1[C@H](O)[C@H](O)[C@@H](OP(=O)(O)O)[C@H](OP(=O)(O)O)[C@H]1O)OC(=O)CCCCCCC [PIP2, 1,2-dioctanoyl-sn-glycero-3-phospho-(1′-myo-inositol-4′,5′-bisphosphate)]
